We go through two compounds from US20040009485A1, “Cellular arrays for the identification of altered gene expression” (priority 2002, published 2004).

SMILES strings stand for the structures.

Assay [1] has as its system luxCDABE gene fusions of the Lux-A Collection. The assay is described as follows: Induction of Lux-A Collection gene fusions by MMC (and yebF fusion by nalidixic acid). The assay is classed as cell-based, E. coli. Particulars: light-producing transformants with inverted insert (20% of them). As to the method:
The Lux-A Collection of reporter gene fusions was examined for presence of fusions to the genes in Table 11. […] Each of these was tested for induction by MMC at several doses over a time course of 100 minutes.
As expected, the expression of the known SOS genes was elevated; however the expression of several was elevated less than 2-fold (Table 12) and as such were within a large group of 792 genes the expression of which was elevated by 20% or more. Most of these are likely due to artifacts in the array data rather than to actual biologically relevant responses. To test if strains carrying luxCDABE gene fusions would yield the expected positive result, the three gene fusions that were available in the Lux-A Collection of reporter gene fusions were tested for mitomycin C responses.
In this case, a divergent promoter to the purT gene was present in the chromosomal fragment and strains containing the backward yebF fusion produced light. […] […] The orientation of the inserted segment to yield a fusion of yebF to the luxCDABE operon was confirmed by DNA sequence analysis.

Assay [2] concerns heat shock regulon gene fusions. The assay is described as follows: Stress response of heat shock regulon luxCDABE gene fusions (ethanol). The assay is classed as cell-based, E. coli. Particulars: clpB-luxCDABE fusion (heat shock regulon), DPD2243; 5 μg/ml nalidixic acid, 110 minutes. As to the method: To test the stress responses, one or two single colonies of each selected strain were used to inoculate 5.0 ml of LB medium containing 150 μg/ml of ampicillin. These cultures were grown overnight at 37° C. then diluted by adding 50 μl or 100 μl of the overnight culture into 10.0 ml of fresh LB medium (without ampicillin) and grown with agitation at 37° C. until the culture was in exponential phase with readings on a Klett-Summerson colorimeter containing the red filter of between 10 and 40. These actively growing cultures were immediately used to initiate a stress response experiment by adding 50 μl of cultures to 50 μl of LB medium containing various concentrations of chemical in the wells a 96 well luminometer plate. This division of the actively growing culture at the time of chemical addition ensured identical populations were present when the stress was imposed. Light production was measured in a Dynex ML3000 luminometer at 37° C. The dimensionless units of light production, relative light units (RLU), are obtained by comparison with the light reading from an internal light-emitting diode. The cycle mode of the ML3000 luminometer, similar to previous descriptions (Van Dyk et al., Appl. Environ. Microbiol. 60:1414-120) was used. […]

The subject of assay [3] is Luxarray 0.5 reporter clones. The assay is described as follows: High density Luxarray 0.5 nalidixic acid perturbation (cooled CCD camera). The assay is classed as cell-based, E. coli. Particulars: 5 μg/ml, 0-8 hr. As to the method:
The clones of Luxarray 0.5 were used to print arrays as described above at a 4×4 density. That is to say that each single spot as in FIG. 3 was replicated 16× in a 4×4 subarray. […] Arrays were printed in triplicate from fresh overnight cultures onto membranes on plates containing LB media. […] Cultures were replaced at 37° C. to continue growing. Images were collected for each array every two hours from 0-8 hr after relocation using a cooled CCD camera (FluorChem 8000: f0.85 lens, 2 min exposure. AlphaInnotech). Spot intensity was determined using ArrayVision™ (Imaging Research, Toronto, Canada).
In contrast, light production from the strain carrying the lac promoter fusion as well as several strains carrying other promoter fusions was decreased.

In assay [4] the test system is uhpT-luxCDABE gene fusion (E. coli strain DPD3228). Kind of assay: Verification of uhpT-lux upregulation by limonene. The assay is classed as cell-based. Particulars: late response, maximal at highest conc, also detected at 40% or 20% of saturating amounts (FIG. 10). As to the method:
E. coli strain DPD3228 is identical to lux-a.pk034.b9 the strain containing the uhpT-luxCDABE gene fusion. This strain was grown overnight at 37° C. in LB medium containing 100 μg/ml ampicillin and diluted the following day into LB medium and grown to log phase at 37° C. 20 μl aliquots of this culture were added to 80 μl of LB medium saturated with limonene, to 80 μl of a series of two fold dilutions into LB medium of LB saturated with limonene, and to 80 μl of LB medium. Light production was measured in a Luminoskan Ascent (Labsystems) microplate luminometer at 37° C. […] Similar to the initial LuxArray observations, a late response to the presence of limonene was observed. This response was maximal at the highest concentration of limonene tested, but was also detected when limonene was present at 40% or 20% of saturating amounts in LB medium.

As for `CCn1cc(C(=O)O)c(=O)c2ccc(C)nc21` [Nalidixic acid, nalidixic acid], the “induction of bioluminescence of inverted yebF-luxCDABE fusion” value in assay [1] is on record as “highly induced”. Besides, the Response Ratio in assay [2] was found to be 0.40. For the same compound, the “reporter expression, high density array” value in assay [3] (five documented DNA damage-responsive reporter constructs) is “upregulation of expression”. In addition, in assay [3] (lac promoter fusion and several other promoter fusions), the “light production, high density array” value is recorded as “decreased”.
Turning to `C=C(C)[C@H]1CC=C(C)CC1` [limonene], the “upregulation of bioluminescence of uhpT-luxCDABE strain” value in assay [4] is recorded as “upregulation of bioluminescence from this strain by limonene was confirmed”.
